Converted amounts (≈) assume the structure as drawn. Like-named read-outs stand apart in the source and are kept apart here. Where a SMILES comes first, the peptide text is derived from it. [ ]: non-standard residue; d: D form. Gly(N(CH2)2(3-indolyl)) = O=C(O)CNCCc1c[nH]c2ccccc12; Nspe = C[C@H](NCC(=O)O)c1ccccc1; Nlys = NCCCCNCC(=O)O
What was measured:
red blood cells = assay: Hemolysis assay; type: cell-based, Sprague-Dawley mouse
How it was run: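 Peptoid is mixed with 10% (v/v) PBS-washed erythrocytes (male Sprague-Dawley […], 13 weeks) and held 1 h at 37 °C. Hemolysis is calculated from 540 nm absorbance of the supernatant, with PBS as 0% and Triton X-100 as 100%.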

E. coli ATCC25922 = details: for antimicrobial activity (in words): E. coli and S. aureus, compared to Peptoid 1, parent peptoid or TFA salt as stated
How it was run: (§1)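 Cation-adjusted MHB2 cultures (18 h, subcultured 4 h) adjusted to 2×10^5–5×10^5 CFU/mL in medium with 0.02% BSA and 0.001% acetic acid.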

S. aureus ATCC 25923 = system: S. aureus ATCC 25923
How it was run: as §1

Human lung cells (MRC-5) = assay: in vitro; details: for CC50: read-out: LC50 MRC-5, 24 hours incubation, concentration that causes 50% cell lethality
Procedure: (§2) Human lung cells (MRC-5) were purchased from the Korean Cell Line Bank, and human keratinocytes (HaCaT) were purchased from the AmorePacific R&D Center. All cells were grown in a Dulbecco's modified Eagle's medium containing 10% fetal bovine serum under conditions of 5% CO2 and 37° C. To confirm the effect of a peptoid on cell growth, 3-(4,5-dimethylthiazol-2-yl)-5-(3-carboxymethoxyphenyl)-2-(4-sulfophenyl)-2H-tetrazolium (MTS) cell assay was performed to determine cell viability. An aliquot (100 μL) of a batch including 1.3×10^4 MRC-5 cells/mL or 3×10^4 HaCaT cells/mL was dispensed into each well of a 96-well plate. The cells were grown at 37° C. in a 5% CO2 humid atmosphere and allowed to adhere for 24 hours. When the cells reached approximately 70% confluency, the medium was replaced with serial dilutions of the peptoid stock and incubated for 24 hours. 20 μL of a CellTiter 96 aqueous non-radioactive cell proliferation assay reagent (Promega, USA) including a tetrazolium compound was added to each well.
(§3) The contents in the plate were metabolized by incubating at 37° C. for 4 hours. An MTS-formazan product of viable cells was measured at 490 nm using a microplate reader, and cell viability (%) was calculated by Equation 2 below and compared with untreated cells.
(§4) Cell viability (%)=[A/(Acontrol)]×100 [Equation 2]
(§5) In Equation 2, A is the absorbance of a test well, and Acontrol is the average absorbance of a well containing untreated cells.
(§6) The term “nd” shown in Table 19 below is the abbreviation for not determined, and indicates a value that is too small or too large to be measured.

[1] = HPLC to confirm peptoid decomposition after counter ion substitution; type: physicochemical; details: HPLC at 220 nm; HCl and AcOH
Procedure: FIGS. 76 to 83 are the HPLC results for Peptoids 1, 10, 11, 14, 15, 29, 32 and 37 of the present inventive concept to confirm the decomposition of the peptoids after counter ion substitution using (a) HCl and (b) AcOH.
Referring to FIGS. […], HPLC was performed for Peptoids 1, 10, 11, 14, 15, 29, 32 and 37 of the present inventive concept. Since the chloride (HCl) is a stronger acid than TFA, it can decompose acid-vulnerable peptoid compounds.

[2] = system: human keratinocytes (HaCaT); assay: in vitro
Procedure: as §2, §3, §4, §5, §6

[3] = Table 18, TFA salt vs counter ion-substituted peptoids
[4] = Table 18, TFA salt vs counter ion-substituted (HCl, AcOH) peptoids
[5] = Tables 11-13, 24 hours at 37° C., maximum concentration 25 μM

Compound: C[C@@H](c1ccccc1)N(CC(N)=O)C(=O)CN(C(=O)CN(CCCCN)C(=O)CN(C(=O)CN(C(=O)CN(CCCCN)C(=O)CN(C(=O)CN(C(=O)CN(CCCCN)C(=O)CN(C(=O)CN(C(=O)CNCCCCN)[C@@H](C)c1ccccc1)[C@@H](C)c1ccccc1)[C@@H](C)c1ccccc1)[C@@H](C)c1ccccc1)[C@@H](C)c1ccccc1)[C@@H](C)c1ccccc1)[C@@H](C)c1ccccc1 [Peptoid 1-1, reference compound] (H-[Nlys][Nspe][Nspe][Nlys][Nspe][Nspe][Nlys][Nspe][Nspe][Nlys][Nspe][Nspe]-NH2)
- HC10 (red blood cells; [3]): 27.6 µM
- HC50 (red blood cells; [3]): 83.3 µM
- Hmax (100 μM) (red blood cells; [3]): 61.5 ± 0.9%
- MIC E. coli ATCC25922 (E. coli ATCC25922; [4]): 6.3 µM
- MIC S. aureus ATCC 25923 (S. aureus ATCC 25923; [4]): 1.6 µM
- CC50 (Human lung cells (MRC-5)): 11.8 µM

Compound: C[C@@H](c1ccccc1)N(CC(N)=O)C(=O)CN(C(=O)CN(CCCCN)C(=O)CN(C(=O)CN(C(=O)CN(CCCCN)C(=O)CN(C(=O)CN(C(=O)CN(CCCCN)C(=O)CN(C(=O)CN(C(=O)CNCCCCN)[C@@H](C)c1ccccc1)[C@@H](C)c1ccccc1)[C@@H](C)c1ccccc1)[C@@H](C)c1ccccc1)[C@@H](C)c1ccccc1)[C@@H](C)c1ccccc1)[C@@H](C)c1ccccc1 [Peptoid 1-2, reference compound] (H-[Nlys][Nspe][Nspe][Nlys][Nspe][Nspe][Nlys][Nspe][Nspe][Nlys][Nspe][Nspe]-NH2)
- HC10 (red blood cells; [3]): 25.0 µM
- HC50 (red blood cells; [3]): 78.6 µM
- Hmax (100 μM) (red blood cells; [3]): 58.2 ± 1.7%
- MIC E. coli ATCC25922 (E. coli ATCC25922; [4]): 12.5 µM
- MIC S. aureus ATCC 25923 (S. aureus ATCC 25923; [4]): 3.1 µM
- CC50 (Human lung cells (MRC-5)): 8.6 µM

Compound: C[C@@H](c1ccccc1)N(CC(N)=O)C(=O)CN(C(=O)CN(CCCCN)C(=O)CN(C(=O)CN(C(=O)CN(CCCCN)C(=O)CN(C(=O)CN(C(=O)CN(CCCCN)C(=O)CN(CCc1c[nH]c2ccccc12)C(=O)CN(C(=O)CNCCCCN)[C@@H](C)c1ccccc1)[C@@H](C)c1ccccc1)[C@@H](C)c1ccccc1)[C@@H](C)c1ccccc1)[C@@H](C)c1ccccc1)[C@@H](C)c1ccccc1 [Peptoid 10, H-NLys-Nspe-NhTrp-NLys-Nspe-Nspe-NLys-Nspe-Nspe-NLys-Nspe-Nspe-NH2]
- peptoid decomposition after counter ion substitution (in words) [1]: almost no peptoid decomposition occurred
- MIC E. coli ATCC25922 (E. coli ATCC25922; ATCC25922): 3.1 µM (≈ 5.76 µg/mL)
- antimicrobial activity (in words) (E. coli ATCC25922): antimicrobial activity was reduced
- MIC E. coli ATCC25922 (E. coli ATCC25922; [5]): 3.1 µM (≈ 5.76 µg/mL)
- MIC S. aureus ATCC 25923 (S. aureus ATCC 25923; [4]): 0.8 µM
- MIC S. aureus ATCC 25923 (S. aureus ATCC 25923; [5]): 1.6 µM (≈ 2.97 µg/mL)

Compound: C[C@@H](c1ccccc1)N(CC(N)=O)C(=O)CN(C(=O)CN(CCCCN)C(=O)CN(C(=O)CN(CCc1c[nH]c2ccccc12)C(=O)CN(CCCCN)C(=O)CN(CCc1c[nH]c2ccccc12)C(=O)CN(C(=O)CN(CCCCN)C(=O)CN(C(=O)CN(C(=O)CNCCCCN)[C@@H](C)c1ccccc1)[C@@H](C)c1ccccc1)[C@@H](C)c1ccccc1)[C@@H](C)c1ccccc1)[C@@H](C)c1ccccc1 [Peptoid 15, H-NLys-Nspe-Nspe-NLys-Nspe-NhTrp-NLys-NhTrp-Nspe-NLys-Nspe-Nspe-NH2]
- peptoid decomposition after counter ion substitution (in words) [1]: almost no peptoid decomposition occurred
- antimicrobial activity (in words) (E. coli ATCC25922): antimicrobial activity was reduced
- MIC E. coli ATCC25922 (E. coli ATCC25922; [4]): 3.1 µM
- MIC E. coli ATCC25922 (E. coli ATCC25922; [5]): 6.3 µM (≈ 12 µg/mL)
- MIC S. aureus ATCC 25923 (S. aureus ATCC 25923; ATCC 25923): 1.6 µM (≈ 3.04 µg/mL)
- MIC S. aureus ATCC 25923 (S. aureus ATCC 25923; [5]): 1.6 µM (≈ 3.04 µg/mL)

Compound: C[C@@H](c1ccccc1)N(CC(=O)N(CCCCN)CC(=O)N(CCc1c[nH]c2ccccc12)CC(=O)N(CCc1c[nH]c2ccccc12)CC(N)=O)C(=O)CN(CCCCN)C(=O)CN(CCCCN)C(=O)CN(C(=O)CN(C(=O)CN(CCCCN)C(=O)CN(C(=O)CN(C(=O)CNCCCCN)[C@@H](C)c1ccccc1)[C@@H](C)c1ccccc1)[C@@H](C)c1ccccc1)[C@@H](C)c1ccccc1 [Peptoid 29-1] (H-[Nlys][Nspe][Nspe][Nlys][Nspe][Nspe][Nlys][Nlys][Nspe][Nlys][Gly(N(CH2)2(3-indolyl))][Gly(N(CH2)2(3-indolyl))]-NH2)
- HC10 (red blood cells): >100/>100 μM
- HC50 (red blood cells): >100/>100 μM
- Hmax (100 μM) (red blood cells): 4.3 ± 0.3%
- MIC E. coli ATCC25922 (E. coli ATCC25922; [4]): 12.5 µM
- MIC S. aureus ATCC 25923 (S. aureus ATCC 25923; [4]): 12.5 µM
- LC50 / animal cell toxicity, MRC-5 (in words) (Human lung cells (MRC-5)): LC50 values of the peptoids increase
- LC50 / animal cell toxicity, HaCaT (in words) [2]: LC50 values of the peptoids increase

Compound: C[C@@H](c1ccccc1)N(CC(=O)N(CCCCN)CC(=O)N(CCc1c[nH]c2ccccc12)CC(=O)N(CCc1c[nH]c2ccccc12)CC(N)=O)C(=O)CN(CCCCN)C(=O)CN(CCCCN)C(=O)CN(C(=O)CN(C(=O)CN(CCCCN)C(=O)CN(C(=O)CN(C(=O)CNCCCCN)[C@@H](C)c1ccccc1)[C@@H](C)c1ccccc1)[C@@H](C)c1ccccc1)[C@@H](C)c1ccccc1 [Peptoid 29-2] (H-[Nlys][Nspe][Nspe][Nlys][Nspe][Nspe][Nlys][Nlys][Nspe][Nlys][Gly(N(CH2)2(3-indolyl))][Gly(N(CH2)2(3-indolyl))]-NH2)
- HC10 (red blood cells): >100/>100 μM
- HC50 (red blood cells): >100/>100 μM
- Hmax (100 μM) (red blood cells): 5.2 ± 0.2%
- MIC E. coli ATCC25922 (E. coli ATCC25922; [4]): 6.3 µM
- MIC S. aureus ATCC 25923 (S. aureus ATCC 25923; [4]): 12.5 µM
- LC50 / animal cell toxicity, MRC-5 (in words) (Human lung cells (MRC-5)): LC50 values of the peptoids increase
- LC50 / animal cell toxicity, HaCaT (in words) [2]: LC50 values of the peptoids increase

Compound: C[C@@H](c1ccccc1)N(CC(N)=O)C(=O)CN(CCCCN)C(=O)CN(CCCCN)C(=O)CN(C(=O)CN(C(=O)CN(CCCCN)C(=O)CN(C(=O)CN(C(=O)CN(CCCCN)C(=O)CN(CCc1c[nH]c2ccccc12)C(=O)CN(CCc1c[nH]c2ccccc12)C(=O)CNCCCCN)[C@@H](C)c1ccccc1)[C@@H](C)c1ccccc1)[C@@H](C)c1ccccc1)[C@@H](C)c1ccccc1 [Peptoid 32-1]
- HC10 (red blood cells): >100/>100 μM
- HC50 (red blood cells): >100/>100 μM
- Hmax (100 μM) (red blood cells): 8.7 ± 0.6%
- MIC E. coli ATCC25922 (E. coli ATCC25922; [4]): 6.3 µM
- MIC S. aureus ATCC 25923 (S. aureus ATCC 25923; [4]): 6.3 µM
- LC50 / animal cell toxicity, HaCaT (in words) [2]: LC50 values of the peptoids increase

Compound: C[C@@H](c1ccccc1)N(CC(N)=O)C(=O)CN(CCCCN)C(=O)CN(CCCCN)C(=O)CN(C(=O)CN(C(=O)CN(CCCCN)C(=O)CN(C(=O)CN(C(=O)CN(CCCCN)C(=O)CN(CCc1c[nH]c2ccccc12)C(=O)CN(CCc1c[nH]c2ccccc12)C(=O)CNCCCCN)[C@@H](C)c1ccccc1)[C@@H](C)c1ccccc1)[C@@H](C)c1ccccc1)[C@@H](C)c1ccccc1 [Peptoid 32-2]
- HC10 (red blood cells): 83.0 µM
- HC50 (red blood cells): > 100 µM
- Hmax (100 μM) (red blood cells): 13.8 ± 1.1%
- MIC E. coli ATCC25922 (E. coli ATCC25922; [4]): 6.3 µM
- MIC S. aureus ATCC 25923 (S. aureus ATCC 25923; [4]): 6.3 µM
- LC50 / animal cell toxicity, MRC-5 (in words) (Human lung cells (MRC-5)): LC50 values of the peptoids increase
- LC50 / animal cell toxicity, HaCaT (in words) [2]: LC50 values of the peptoids increase

Compound: C[C@@H](c1ccccc1)N(CC(=O)N(CCCCN)CC(=O)N(CC(=O)N(CC(=O)N(CCCCN)CC(=O)N(CC(=O)N(CC(=O)N(CCCCN)CC(N)=O)[C@@H](C)c1ccccc1)[C@@H](C)c1ccccc1)[C@@H](C)c1ccccc1)[C@@H](C)c1ccccc1)C(=O)CN(C(=O)CN(CCCCN)C(=O)CN(CCc1c[nH]c2ccccc12)C(=O)CNCCc1c[nH]c2ccccc12)[C@@H](C)c1ccccc1 [Peptoid 37, H-NhTrp-NhTrp-NLys-Nspe-Nspe-NLys-Nspe-Nspe-NLys-Nspe-Nspe-NLys-NH2] (H-[Gly(N(CH2)2(3-indolyl))][Gly(N(CH2)2(3-indolyl))][Nlys][Nspe][Nspe][Nlys][Nspe][Nspe][Nlys][Nspe][Nspe][Nlys]-NH2)
- peptoid decomposition after counter ion substitution (in words) [1]: almost no peptoid decomposition occurred
- MIC E. coli ATCC25922 (E. coli ATCC25922; ATCC25922): 3.1 µM (≈ 5.88 µg/mL)
- antimicrobial activity (in words) (E. coli ATCC25922): antimicrobial activity was reduced
- MIC E. coli ATCC25922 (E. coli ATCC25922; [5]): 3.1 µM (≈ 5.88 µg/mL)
- MIC S. aureus ATCC 25923 (S. aureus ATCC 25923; [4]): 1.6 µM
- MIC S. aureus ATCC 25923 (S. aureus ATCC 25923; [5]): 1.6 µM (≈ 3.04 µg/mL)
